Results on three molecules are retold here after patent US4226885A, “Guanylhydrazones and medicaments containing them” (Choay S.A., priority 1977, dated 1980).

Read-outs that look alike come from different tables or passages of the source.

The conditions of series [1]: mouse; cited from earlier work.
In series [2] the test system is fibro-sarcomas induced by methyl cholanthrene, tumour cells in culture. Briefly: Tumour culture: inhibition of multiplication of methyl cholanthrene-induced fibro-sarcoma cells in vitro. The following applies: Rattus norvegicus. Format: cell-based. How it is done:
A supplementary study of the activity of these products upon the inhibition of growth of animal cells was effected by tumour culture. On fibro-sarcomas induced by methyl cholanthrene (O. Flandre et coll. C.R. Jour. biol. 1966. 160 152) the products were tested: upon tumour cells in culture "in vitro" and upon treated rats.
1. upon tumour cells in culture "in vitro" the results of the tested products are reported in Table IV below, which expresses the cellular count at the 72nd hour after sub-culture, in the presence of the substances to be studied.
The results are expressed in percentage of diminution of the number of cells in comparison with the control.
The determinations were effected with the products at three molar concentrations: 10^-4, 10^-5 and 10^-6.
This concerns fibro-sarcomas induced by methyl cholanthrene according to a technique described by O. FLANDRE, I. CIURANA, J. SECCHI and M. DAMON: Reports of the Sittings of the Biology Society, Volume 160, No. 1, 1966, page 152.
The products can be tested either upon tumour cells cultivated in vitro, or upon the rat treated by tumour cell injections either in situ or by intraperitoneal injection.
The preliminary experiments carried out with the substances according to the invention, tested on tumour cells cultivated in vitro, disclose a retardation of the cellular multiplication.

Series [3] deals with Lipidium sativum. The series is described as follows: Inhibition of the growth of the root meristem of Lipidium sativum (vegetable cells). Format: in vivo. How it is done:
The test of the inhibition of the growth of the root meristem of Lipidium sativum was used, which test is used to evaluate the cytostatic action of series of drugs. It consists in placing germinated grains of Lipidium sativum in 15 ml. of aqueous solution containing 1% of methyl cellulose, in which the guanyl hydrazones are placed in suspension.
After leaving in darkness for 24 hours at the temperature of 27° C., the elongation of the root in comparison with that of a control batch (Li Lipidium sativum grain in methyl cellulose medium) is determined.
The validity of the linear model was evaluated with the aid of test F: [formula]
In the example supplied, for the calculation of the confidence interval for α=0.05, one finds:
that is to say one has five chances per hundred, if one repeats another series of measurements, of finding a pI 50 outside this limit.

Series [4] has as its system fibro-sarcomas induced by methyl cholanthrene, tumour cells in culture. The series is described as follows: Tumour culture: inhibition of multiplication of methyl cholanthrene-induced fibro-sarcoma cells in vitro. Format: cell-based. As to conditions: Rattus norvegicus, read-out: percentage of inhibition in comparison with the control; heading: percentage of inhibition in comparison with the control; B3 tumour culture, 10^-3 M.

For series [5], the system named is rat embryo cultures (muscle fragment). Briefly: Culture in explants: mitotic index of rat embryo cultures. Format: cell-based. How it is done: This concerns rat embryo cultures kept for at least 6 months (muscle fragment). The explants are placed in culture in plasma coagulum (cock plasma). The cultures are fed with nutrient medium (Hanx+embryonary extract+decomplemented calf foetus serum). 24 hours after placing in plasma coagulum, the product to be tested is added at different dilutions. The cultures are examined on the 4th day and the counting of the number of mitoses is effected in the growth zone of the explants. The percentage of each of the phases of the mitosis is determined for the whole (mitotic index).

Series [6] deals with rat liver monoaminoxydase. Briefly: I.M.A.O. activity: inhibition of rat liver monoaminoxydase (spectrophotometric, kynuramine as substratum). Format: biochemical. The following applies: 50% inhibition. How it is done: The inhibiting activity of the envisaged guanyl hydrazones in relation to rat liver monoaminoxydase was determined by means of a spectrophotometric method, using kynuramine as substratum.
The I.M.A.O. activity was determined for various concentrations of guanyl hydrazone. The concentrations for which one obtains 50% inhibition relate to the pI 50, which is calculated as follows: […]
For each concentration about ten experiments are carried out, from which the mean activity Yi is determined. Only concentrations giving a Yi between 15 and 85% of activity are retained.
Assume N concentrations Ci retained; to each Ci there correspond a certain number ni of experiments and a mean activity Yi.
Assume in all NT=Σni experiments.
(a) The equation of the straight line Yi =f (Ci) is calculated by the method of least squares.
To this straight line there are attached different statistic tests to express its validity, as straight line only.
Then the corresponding concentration is deduced for Y=50%.
(b) Statistical calculations permit evaluation of the legitimacy of the linear model. These calculations take account of all the points, that is to say NT experiments, whereas the straight line is determined from the mean activities only, which means that these calculations take account of the dispersion which affects every average.
(c) Calculation of the confidence interval for α=0.05.
The pI50 s of the compounds 1 to 7 appearing in Table I above were calculated by application of the method as just described; they have been listed in Table II below: […]

Series [7] has as its system Rat fibroblast cultures. The series is described as follows: Action upon cultures of trypsinised fibroblasts. Format: cell-based. The following applies: read-out: percentage of inhibition in comparison with the control, heading: percentage of inhibition in comparison with the control, 10^-4 M, 48 and 72 hours. How it is done:
Rat fibroblast cultures are concerned and the strains have been maintained for several years.
For single-layer cultivation in Roux flasks, Trypsinisation at 0.25% detaches the cells from the flask on the one hand and from one another on the other hand.
The cells are distributed in lamellated tubes at the rate of 250,000 cells per ml., where they are deposited.
The products to be tested are introduced at different dilutions, and left to act for 48 and 72 hours.
Next, the counting of the cells is effected (10 fields for 5 blades) and the results obtained are compared with control tumours which have not received the product to be tested.

For series [8], the system named is platelet aggregation. Briefly: Platelet anti-aggregant action (BORN's method). Format: cell-based, human or rabbit. As to conditions: platelet-rich plasma, human blood or rabbit's blood; Table V; read-out: PI50 (platelet aggregation) (converted). How it is done:
The determination of the platelet aggregability was effected according to BORN's method, using a LABINTEC aggregometer.
Firstly a platelet-rich plasma (or PRP) and next a platelet-poor plasma (or PPP or PDP) are prepared from human blood or rabbit's blood, and the apparatus is calibrated.
Then the aggregating power of the plasma (PRP) is determined in relation to the PDP in the presence and in the absence of guanyl hydrazone. Thus it is possible to determine the percentage of inhibition of platelet aggregation as a function of the concentration. The curves obtained permit of determining a pI 50. […]

Series [9] deals with leukaemias, Hodgkin's disease. The following applies: cited from earlier work.
Series [10] relates to ADN. The following applies: cited from earlier work.
Series [11] has as its system synthesis of nucleic acids. As to conditions: cited from earlier work.

With `N=C(N)NN=Cc1ccc([N+](=O)[O-])o1` [5-nitrofurfuraldehyde guanyl hydrazone], the anti-tumoral activity entry in [1] is “a certain anti-tumoral activity in the mouse”.

On to `N=C(N)NN=CCOc1ccc(Cl)cc1` [Compound 4], for which the inhibition at 100 µM in series [2] (72 h, 10^-4 molar, 72nd hour after sub-culture, read-out: percentage of diminution of the number of cells in comparison with the control) was 36.8%; in series [2] (concentration of 10^-4 mol, read-out: retardation of the cellular multiplication) it was greater than 30%; in [7] it was roughly 77%. In addition, the inhibition at 10 µM in series [2] (72 h, 10^-5 molar, 72nd hour after sub-culture, read-out: percentage of diminution of the number of cells in comparison with the control) came to 23.7%. Also, the inhibition at 1 µM in [2] (72 h, 10^-6 molar, 72nd hour after sub-culture, read-out: percentage of diminution of the number of cells in comparison with the control) was determined as 7.89%. Moreover, the “pI 50 (guanyl hydrazones)” value in [3] (50% inhibition of root growth, 24 hours, 27° C., darkness) was found to be 5.14±0.08. The IC50 in series [3] (50% inhibition of root growth, 24 hours, 27° C., darkness, read-out: pI 50 (guanyl hydrazones) (converted)) was 7.24 µM; in series [8] it was 562 µM. Moreover, in series [3] (Lipidium sativum test), the “inhibiting activity (root growth, in words)” value is on record as “great inhibiting activity”. Moreover, the inhibition at 1000 µM in [4] is roughly 45%. Moreover, the mitotic index in [5] (4th day, control culture 2.5%) turned out to be 1.2%. Besides, in [5] (vs control culture), the “number of mitoses at the metaphase level” value is on record as “significant reduction of the number of mitoses at the metaphase level”. Also, the “pI 50” value in series [6] is 4.70.

As to `CC(C=NNC(=N)N)=NNC(=N)N` [methyl-glyoxal-bis (guanyl hydrazone)], the “action in Hodgkin's disease” value in series [9] (Hodgkin's disease) was “sometimes but rarely efficacious”. For the same molecule, in series [9] (acute myeloblastic and promyelocytary leukaemias), the “action in acute myeloblastic and promyelocytary leukaemias” value was “action has been verified”. For the same molecule, the “action in acute transformations of chronic myeloid leukaemia and other leukaemias” value in [9] (acute transformations of chronic myeloid leukaemia and other leukaemias) is “less efficacious”. Also, the “side effects on administration” value in [9] (in vivo) was “various cutaneous, digestive and metabolic troubles, in particular hypoglycaemia”. For the same molecule, the “complex formation with ADN” value in [10] is reported as “forms complexes with ADN”. For the same molecule, the “inhibition of nucleic acid synthesis” value in series [11] was “inhibits the synthesis of nucleic acids”.
